Substitutions are numbered along the chain they refer to. “And” between values parts separate entries of the source, which are not always exact repeats. Identical values can stand only once.
Legend:
[1] = target: T1, NgR1(310)-fc R151E (Homo sapiens, UniProt Q9BZR6, R151E); test: Analytical ultracentrifugation, R151E mutant receptor; type: binding
T1 construct: made in house; host or cells: mammalian expression vector
T1 sequence (Q9BZR6 27-310 R151E): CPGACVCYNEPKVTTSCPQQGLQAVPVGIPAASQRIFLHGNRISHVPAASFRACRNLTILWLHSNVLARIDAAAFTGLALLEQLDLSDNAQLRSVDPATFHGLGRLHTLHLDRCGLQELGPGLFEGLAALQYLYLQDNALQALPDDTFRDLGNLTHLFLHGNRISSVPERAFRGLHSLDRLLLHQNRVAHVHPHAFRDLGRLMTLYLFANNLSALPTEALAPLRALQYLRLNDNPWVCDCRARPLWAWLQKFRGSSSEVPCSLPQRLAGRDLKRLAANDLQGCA
Text: (§1) Human Nogo Receptor 1 (NgR1)(310)-fc point mutants (FRG-1 (R151E); FRG-2 (R279E); FRG-3 (R199E), and FRG-4 (R151E/R279E/R199E)) were constructed by Genewiz (North Brunswick, N.J.) using their site-directed mutagenesis technology. The template used to construct all the described mutants was wild type human NgR1(310)-fc (SEQ ID NO:59), which was generated by fusing a nucleotide sequence corresponding to the first 310 amino acid of Human Nogo Receptor 1 to a human Fc fragment in a mammalian expression vector (the sequence of wild type NgR1(310)-fc and the expression vector is set forth in SEQ ID NO:60 and a schematic of the expression vector is shown in FIG. 11). […]
(§2) Sedimentation velocity experiments were performed on a Beckman XLI/XLA analytical ultracentrifuge. […] Scans were recorded at 20° C. with a rotor speed of 35,000 rpm, and the signal was detected at 230 nm with a spacing of 0.006 in the continuous mode. Sedimentation profiles were analyzed by the program Sedfit (Schuck (2000) Biophys. J. 78:1606-19) to obtain the sedimentation coefficient distributions. The solvent density (1.006) and partial specific volume (0.72) were calculated using the program Sednterp (Laue et al. (1992) Analytical Ultracentrifugation in Biochemistry and Polymer Science (Harding, S. E., Towe, A. J. and Horton, J. C., eds.) pp. 90-125, Royal Society of Chemistry, Cambridge, U.K). […]

[2] = test system: anti-hNgR AF 1208 antibody; test: Analytical ultracentrifugation, specificity control; type: binding; conditions: 22 mM GT1b (data not shown)
Protocol: Sedimentation velocity experiments were performed on a Beckman XLI/XLA analytical ultracentrifuge. Wild type NgR(310)-fc (0.21 μM to 0.38 μM final) was added to ganglioside at concentrations increasing from 0 to 48 μM. Mutant protein used in the sedimentation velocity experiments corresponded to the column fraction of greatest purity based on SDS gel analysis. […] The solution (400 μL) was loaded into two-channel (1.2 cm path length) carbon-Epon centerpieces in an An-50-Ti rotor. Scans were recorded at 20° C. with a rotor speed of 35,000 rpm, and the signal was detected at 230 nm with a spacing of 0.006 in the continuous mode. Sedimentation profiles were analyzed by the program Sedfit (Schuck (2000) Biophys. J. 78:1606-19) to obtain the sedimentation coefficient distributions. The solvent density (1.006) and partial specific volume (0.72) were calculated using the program Sednterp (Laue et al. (1992) Analytical Ultracentrifugation in Biochemistry and Polymer Science (Harding, S. E., Towe, A. J. and Horton, J. C., eds.) pp. 90-125, Royal Society of Chemistry, Cambridge, U.K).
The peptide competition studies, together with the direct binding assays, have implicated the FRG motif within loop 2 as being important for MAG function. […]

[3] = target: T2, NgR1(310)-fc R199E (Homo sapiens, UniProt Q9BZR6, R199E); test: Analytical ultracentrifugation, R199E mutant receptor; type: binding
T2 construct: made in house; host or cells: mammalian expression vector
T2 sequence (Q9BZR6 27-310 R199E): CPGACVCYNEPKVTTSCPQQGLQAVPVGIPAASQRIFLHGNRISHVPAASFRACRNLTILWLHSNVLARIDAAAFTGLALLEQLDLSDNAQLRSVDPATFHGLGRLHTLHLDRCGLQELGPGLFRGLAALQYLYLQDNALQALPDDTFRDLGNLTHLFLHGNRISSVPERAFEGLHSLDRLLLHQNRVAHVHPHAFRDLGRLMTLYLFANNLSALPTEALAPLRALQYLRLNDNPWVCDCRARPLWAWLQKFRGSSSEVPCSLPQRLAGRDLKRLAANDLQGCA
Text: as §1, §2

[4] = target: T3, NgR1(310)-fc R279E (Homo sapiens, UniProt Q9BZR6, R279E); test: Analytical ultracentrifugation, R279E mutant receptor; type: binding
T3 construct: made in house; host or cells: mammalian expression vector
T3 sequence (Q9BZR6 27-310 R279E): T1 sequence (Q9BZR6 27-310 R151E) with E125R, R253E
Text: as §1, §2

[5] = target: T4, NgR1(310)-fc (Homo sapiens, UniProt Q9BZR6); test: Analytical ultracentrifugation (sedimentation velocity), wild type receptor; type: binding; conditions: ganglioside 0 to 48 μM (FIG. 3A-C)
T4 construct: made in house; host or cells: mammalian expression vector (pSMED2)
T4 sequence (Q9BZR6 with tags, fused parts or gaps limits assumed): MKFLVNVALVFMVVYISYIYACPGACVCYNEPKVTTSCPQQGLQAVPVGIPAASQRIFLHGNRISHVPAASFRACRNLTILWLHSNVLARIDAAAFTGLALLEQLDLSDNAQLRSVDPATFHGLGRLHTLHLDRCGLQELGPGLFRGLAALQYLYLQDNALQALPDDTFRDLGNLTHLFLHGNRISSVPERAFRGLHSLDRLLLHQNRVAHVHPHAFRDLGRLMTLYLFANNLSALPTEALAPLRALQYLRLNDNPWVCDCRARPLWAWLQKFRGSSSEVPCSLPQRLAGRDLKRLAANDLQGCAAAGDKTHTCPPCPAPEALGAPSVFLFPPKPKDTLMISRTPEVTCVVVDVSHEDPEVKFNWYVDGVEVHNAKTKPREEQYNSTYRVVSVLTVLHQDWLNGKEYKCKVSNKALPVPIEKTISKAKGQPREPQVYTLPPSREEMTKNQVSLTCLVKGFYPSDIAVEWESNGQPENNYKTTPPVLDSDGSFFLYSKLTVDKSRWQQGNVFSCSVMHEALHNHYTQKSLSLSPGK
Text: as §1, §2

[6] = test system: NgR1 expressed in CHO cells (Nogo66-AP binding); test: Neuraminidase treatment, Nogo66-AP binding to NgR1-expressing CHO cells; conditions: highest concentration of neuraminidase; Nogo66-AP 10 μg/ml
Protocol: (§3) Chinese hamster ovary (CHO) parental cells and NgR1 stable cells were seeded at 30,000 cells per well in 96-well plates the night before the assay. Various concentrations of Vibrio cholera neuraminidase (Roche Applied Science, Indianapolis, Ind.) in growth medium (Dulbecco's modified Eagle medium containing 10% fetal bovine serum) were incubated with cells for an hour at 37° C. Medium was replaced with affinity-purified MAG-AP or Nogo66-AP in HBSS supplemented with 1% fetal bovine serum and […] of HEPES and incubated at room temperature for 90 min. Cells were then washed four times with supplemented HBSS. AltoPhos (0.6 mg/ml) (Promega, Madison Wis.) was added for indication of bound ligands. After a 30 minute incubation at RT, the plates were read at […] wavelength of 400 nm/505 nm with FLEXSTATION® 11384.
(§4) In neurons, soluble MAG binds to the NgR1 and NgR2 in a sialic acid-dependent manner (Venkatesh et al. (2005) supra). In the present study, the neuraminidase sensitivity of MAG binding to the NgR1 expressed in CHO cells was confirmed.

[7] = test system: NgR1 expressed in CHO cells (MAG-AP binding); test: Neuraminidase treatment, MAG-AP binding to NgR1-expressing CHO cells; conditions: MAG-AP 2.5-20 μg/ml; CHO cells treated with neuraminidase
Protocol: as §3, §4

[8] = test system: cerebellar granule neurons; test: Neurite outgrowth on substrate-bound MAG; type: cell-based, rat; conditions: tested at up to 200 μg/ml (FIG. 6F)
Protocol: Cerebellar neurons isolated from postnatal day ⅔ rat pups were cultured over monolayers of 3T3 cells (Doherty et al. (1991) Neuron 6(2):247-58) essentially as previously described (Williams et al. (1994) Neuron 13(3):583-94). Monolayers were established by seeding ˜80,000 cells into individual chambers of an eight-chamber tissue culture slide coated with poly-L-lysine and fibronectin. The cell lines, and monolayers, were maintained in Dulbecco's modified Eagle's medium supplemented with 10% fetal calf serum (FCS). […] Following careful fixation with 4% paraformaldehyde, the neurons were stained with a GAP-43 antibody, and the mean length of the longest neurite per cell was measured for ˜120-150 neurons, again as previously described (Williams et al. (1994) supra). […] The average of total neurite lengths from each neuron was measured automatically by the MetaXpress Neurite Outgrowth module (Molecular Devices, Sunnyvale, Calif.) from at least 200 neurons per well, in triplicate wells per experiment. […]

[9] = test system: cerebellar neurons; test: Neurite outgrowth assay, inhibition by soluble MAG-Fc; type: cell-based, rat; conditions: MAG-Fc 20 μg/ml, increasing peptide concentrations (FIG. 6E)
Protocol: Cerebellar neurons isolated from postnatal day ⅔ rat pups were cultured over monolayers of 3T3 cells (Doherty et al. (1991) Neuron 6(2):247-58) essentially as previously described (Williams et al. (1994) Neuron 13(3):583-94). Monolayers were established by seeding ˜80,000 cells into individual chambers of an eight-chamber tissue culture slide coated with poly-L-lysine and fibronectin. The cell lines, and monolayers, were maintained in Dulbecco's modified Eagle's medium supplemented with 10% fetal calf serum (FCS). Cocultures were established by removing the media from the monolayers and seeding ˜6000 dissociated cerebellar neurons into each well in SATO medium (modified from Doherty et al. (1990) Neuron 5(2):209-19; Dulbecco's modified Eagle's medium supplemented with 2% FBS, 33% bovine albumin, 0.62 μg/ml progesterone, 161 μg/ml putrescine, 4 μg/ml L-thyroxine, 0.387 μg/ml selenium, and 3.37 μg/ml tri-iodo-thyronine (components from Sigma-Aldrich, St. Louis, Mo.)). Monolayers were established for 24 hours prior to addition of the neurons and the cultures were maintained for ˜23-27 hr. Following careful fixation with 4% paraformaldehyde, the neurons were stained with a GAP-43 antibody, and the mean length of the longest neurite per cell was measured for ˜120-150 neurons, again as previously described (Williams et al. (1994) supra). For neurite outgrowth on substrate-bound MAG, 96-well plates were coated with a thin layer of nitrocellulose (Bio-Rad, Hercules, Calif.) before incubating with 1 μg/ml of MAG(d1-5) (a chimeric construct containing domains 1-5 of the extracellular portion of MAG) at 4° C. overnight. Wells were subsequently coated with 17 μg/ml of poly-D-lysine (Sigma, St. Louis, Mo.), followed by incubation in Dulbecco's modified Eagle's medium containing 10% FCS. Cerebellar granule neurons were dissociated and seeded at a density of 10^4 cells per well. Cells were cultured for 18-20 h before being fixed with 4% paraformaldehyde and stained with a neuronal-specific anti-III-tubulin antibody, Tuj 1 (Covance, Emeryville, Calif.). The average of total neurite lengths from each neuron was measured automatically by the MetaXpress Neurite Outgrowth module (Molecular Devices, Sunnyvale, Calif.) from at least 200 neurons per well, in triplicate wells per experiment. Results were repeated independently more than three times.
Synthetic peptides were all obtained from a commercial supplier (Multiple Peptide Systems, San Diego, Calif.). All peptides were purified to the highest grade by reverse-phase HPLC and obtained at the highest level of purity (>97%). With all peptides, there was no indication of higher molecular weight species. Where peptide sequences are underlined, this denotes a peptide that has been cyclized via a disulfide bond between the given cysteine residues. All peptides were acetylated (e.g., denoted with “N-Ac-”) and amide blocked (e.g., denoted with “—NH2”). Recombinant MAG-Fc chimera was obtained from R&D Systems (Minneapolis, Minn.) and used at final concentrations ranging from 5-25 μg/ml. The monoclonal antibody to GT1b (clone GMR5) was obtained from Seikagaku America (Falmouth, Mass.) and was used at a final concentration of 20 μg/ml. All reagents were diluted into the coculture media and, in general, added to the cultures just prior to the plating of the neurons. GT1b and GM1 were obtained as gifts from Dr. Gino Toffano (Libero, Italy) and University of Milan, and asialo-GM1 was obtained from Sigma (St. Louis, Mo.). The recombinant NgR1(310)-fc and MAG(d1-5) chimeras were expressed and purified in-house. Pharmacological reagents were obtained from Calbiochem (La Jolla, Calif.) and/or Sigma. For reagents used in cell-surface NgR binding assays, please see Examples 1.5 and 1.7. For reagents used in the cell surface p75NTR-NgR-AP binding assay, please see Example 1.13.
In contrast, a soluble MAG-Fc chimera inhibits neurite outgrowth in a manner that depends upon both ganglioside and NgR function. […]

GT1b was tested, and the “reduction of GT1b/NgR1 complex formation” value ([1]; R151 mutated) was ~50%, the “GT1b binding relative to wild type” value ([1]; mutation of arginine 151, GT1b 22 μM) was 49% and the “effect on sedimentation of control antibody” value [2] was “No effect”. For the same substance, the “reduction of GT1b/NgR1 complex formation” value ([3]; R199 mutated) was ~70%, the “GT1b binding relative to wild type / residual complex formation” value ([3]; mutation of arginine 199, GT1b 22 μM) was ~30% and 33% and the “reduction of GT1b/NgR1 complex formation” value ([4]; R279 mutated) was ~50%. For the same substance, the “GT1b binding relative to wild type NgR” value ([4]; mutation of arginine 279, GT1b 22 μM, ratio of ~6.7 S and ~11 S peaks) was “approximately 56%” and the “interaction with NgR1(310)-fc (shift of sedimentation coefficient)” value [5] was “additional peaks with higher sedimentation coefficients appear in a dose-dependent manner”.
For “neuraminidase: Vibrio cholera neuraminidase (Roche Applied Science)”, the “effect on Nogo66-AP binding to NgR1” value [6] was “completely unaffected” and the “inhibition of specific binding of MAG-AP to NgR1-expressing cells” value [7] was 55%.
With “N-Ac-c[sGrfkq]-NH2 (XGXXXX; not fully specified; cyclised or stapled) [hriNRL2]” the “effect on suppressed neurite outgrowth on MAG substrate” value [8] was “no significant effect” and the “efficacy in inhibiting the MAG response” value [9] was “retain full efficacy”.

From patent publication US20080027001A1, “NOGO RECEPTOR FUNCTIONAL MOTIFS, PEPTIDE MIMETICS, AND MUTATED FUNCTIONAL MOTIFS RELATED THERETO, AND METHODS OF USING THE SAME” (priority 2006, published 2008)
